Legend:
[1] = test system: Cells transduced with BacMam BRAF V600E; test: Morphological profiling of BacMam BRAF V600E transduced cells treated with test agents; assay type: cell-based; settings: for side effect score versus disease score (position relative to the funnel, FIG. 10): cells expressing BRAF V600E, varying concentrations of compound, dot plot FIG. 10; for quantified reversal of the disease state (rescue of BRAF V600E overexpression phenotype): morphological profile of treated vs not treated BRAF V600E-transduced cells, 18 compounds tested
From the text: (§1) Morphological profiles may be generated by various methods. In an embodiment, morphologically profiling cells may comprise imaging relevant cells or tracking certain parameters or features of the cells. The tracking may be of staining intensities in one or more imaging channels, correlations between imaging channels, textural patterns, size and shape of cellular structures, geometric relationships between intracellular structures, geometric relationships between adjacent cells, or combinations thereof. Cellular features, such as 100 or more cellular features, 500 or more cellular features, or 1000 or more cellular features, may be tracked when morphologically profiling cells. Among various methods of determining these cellular features, they may be obtained by imaging cells with or without fluorescent or non-fluorescent stains or combinations thereof, and numeric features determined by using deep learning embeddings, hand-tuned feature extraction, or combinations thereof. Other than tracking the cellular features, the morphological profiling may include reducing the output of the cellular features using statistical modeling such as principal component analysis.
Pathogenic and non-pathogenic transduced cells were cultured then morphologically profiled. A heatmap of cosine similarities between all pairs of groups (or reagents), origined by method one were generated (FIG. 7). Shown are cells transduced with BacMam vectors having BRAF V600E, KRAS G12C, KRAS G12D, MFN1, MFN1T109A, CTNNB1B, EPAS1, SMO F460L, ALK, EGFR, and some of their nonsense counterparts. […] Cosine similarities between all pairs of feature vectors that were origin by method two in FIG. 7 (FIG. 8).
Cells transduced with BacMam BRAF V600E were treated with varying concentrations of 18 compounds which include dabrafenib and vemurafenib, which target BRAF, and ulixertinib and MEK162, which target downstream biology. […] The difference in features caused by transducing the cells with BRAF V600E was determined. The effect of compounds on those features was determined within the BRAF V600E-transduced cells and also the effects of compounds on features not related to transduction with BRAF V600E. […] The efficacy of test agents in reversing a disease state can be quantified. This is calculated based on morphological profiling of cells treated with a test agent compared to cells not treated with a test agent.

[2] = test system: EGFR-overexpressing cells; test: Morphological profiling of BacMam EGFR transduced cells treated with test agents; assay type: cell-based; settings: cosine similarity, treated vs not-treated EGFR overexpressing cells, FIG. 9
From the text: as §1

Compound | side effect score versus disease score (position relative to the funnel, FIG. 10) [1] | quantified reversal of the disease state (rescue of BRAF V600E overexpression phenotype) [1] | quantification of the reversal of the disease state (modulation of phenotypes of EGFR overexpressing cells) [2]
Cn1cnc2c(F)c(Nc3ccc(Br)cc3F)c(C(=O)NOCCO)cc21 [MEK162] | Separation from the funnel | some of the top test agents | 
CC(C)(C)c1nc(-c2cccc(NS(=O)(=O)c3c(F)cccc3F)c2F)c(-c2ccnc(N)n2)s1 [dabrafenib] | Separation from the funnel | some of the top test agents | 
COc1cc2ncnc(Nc3ccc(F)c(Cl)c3)c2cc1NC(=O)/C=C/CN1CCCCC1 [dacomitinib] |  |  | top two test agents
CC(C)Nc1cc(-c2c[nH]c(C(=O)N[C@H](CO)c3cccc(Cl)c3)c2)c(Cl)cn1 [ulixertinib] | Separation from the funnel | some of the top test agents | 
